The results in this text go back to patent US11225505B2, “Antimicrobial polymyxin derivative compounds” (MONASH UNIVERSITY, priority 2015, dated 2022).

Converted amounts (≈) assume the structure as drawn. Where a SMILES comes first, the peptide text is derived from it. Bridges are numbered along the chain shown (N, C = ends). [ ]: non-standard residue; d: D form. The star is where a group is joined. X22 = Cn1c(C(=O)*)cc2ccccc21; X23 = O=C(c1cc2ccccc2[nH]1)*; X56 = Cn1cc(C(=O)*)c2ccccc21; X27 = O=C(c1sc2ccccc2c1Cl)*; Dab = NCC[C@H](N)C(=O)O; Abu = CC[C@H](N)C(=O)O; Dap = NC[C@H](N)C(=O)O

What all share (assay type): cell-based
In assay [1] the test system is Acinetobacter baumannii ATCC 17978. Conditions: ATCC 17978. An outline of the steps:
(§1)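 Following CLSI procedure M100-S24, minimum inhibitory concentrations of trifluoroacetate lipopeptides are measured in cation-adjusted Mueller-Hinton medium by broth microdilution, alongside a polymyxin B sulphate control.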

Assay [2] relates to Acinetobacter baumannii FADDI-AB034. Conditions: FADDI-AB034. The method in brief: as §1
For assay [3], the system named is Enterobacter cloacae FADDI-EC001. Conditions: FADDI-EC001. An outline of the steps: (§2)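 Values are MICs of the lipopeptide trifluoroacetic acid salts. Dilution series were set up in CAMHB as CLSI M100-S24 specifies.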
Assay [4] has as its system Enterobacter cloacae FADDI-EC003. Conditions: FADDI-EC003. An outline of the steps:
as §1

Assay [5] deals with Enterobacter cloacae FADDI-EC006. Conditions: FADDI-EC006. An outline of the steps: as §1
Assay [6] has as its system Klebsiella pneumoniae FADDI-KP022. Conditions: FADDI-KP022. An outline of the steps:
as §1

Assay [7] relates to Klebsiella pneumoniae FADDI-KP032. Conditions: FADDI-KP032. An outline of the steps: as §1
Assay [8] relates to Klebsiella pneumoniae Kp BM1. Conditions: Kp BM1. An outline of the steps: as §2
The test system of assay [9] is Pseudomonas aeruginosa ATCC 27853. Conditions: ATCC 27853. The method in brief:
as §1

For assay [10], the system named is Pseudomonas aeruginosa FADDI-PA01. Conditions: FADDI-. An outline of the steps:
as §1

For assay [11], the system named is Pseudomonas aeruginosa FADDI-PA022. Conditions: FADDI-PA022. An outline of the steps:
as §1

Assay [12] concerns Pseudomonas aeruginosa FADDI-PA038. Conditions: FADDI-PA038. An outline of the steps:
as §1

Assay [13] relates to Acinetobacter baumannii FADDI-AB030. Description: microbe, parasite or virus in culture. Conditions: FADDI-AB030. The method in brief: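 Lipopeptide TFA salts tested against the multidrug-resistant clinical isolate by CLSI (M100-S24) broth microdilution in cation-adjusted Mueller-Hinton broth, with polymyxin B sulphate as control; MIC read.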

Consider `CC[C@@H]1NC(=O)[C@@H](CC(C)C)NC(=O)[C@H](CCN)NC(=O)[C@@H](NC(=O)[C@H](CN)NC(=O)[C@@H](NC(=O)[C@H](CCN)NC(=O)c2cn(C)c3ccccc23)[C@@H](C)O)CCNC(=O)[C@H]([C@@H](C)O)NC(=O)[C@H](CCN)NC(=O)[C@H](CCN)NC1=O` [Compound 63] (X56-[Dab]T[Dap][Dab][Dab][dL][Abu][Dab][Dab]T; lactam 4-C), for which the Minimum inhibitory concentration is 1 mg/L (≈ 0.874 µM) in [1]; 1 mg/L (≈ 0.874 µM) in assay [2]; less than 0.125 mg/L in assay [3]; 2 mg/L (≈ 1.75 µM) in [4]; 2 mg/L (≈ 1.75 µM) in assay [5]; less than 0.125 mg/L in assay [6]. Moreover, the Minimum inhibitory concentration in assay [7] was less than 0.125 mg/L; in [8] it was less than 0.125 mg/L; in assay [9], 0.5 mg/L (≈ 0.437 µM); in [10], less than 0.125 mg/L; in assay [11], 0.25 mg/L (≈ 0.218 µM); in assay [12], 0.5 mg/L (≈ 0.437 µM). In assay [13], this compound gave a Minimum inhibitory concentration of 0.5 mg/L (≈ 0.437 µM).

For the compound `CC(C)C[C@H]1NC(=O)[C@H](CCN)NC(=O)[C@@H](NC(=O)[C@H](CN)NC(=O)[C@@H](NC(=O)[C@H](CCN)NC(=O)c2cc3ccccc3n2C)[C@@H](C)O)CCNC(=O)[C@H]([C@@H](C)O)NC(=O)[C@H](CCN)NC(=O)[C@H](CCN)NC(=O)[C@H]([C@@H](C)O)NC1=O` [Compound 64] (X22-[Dab]T[Dap][Dab][Dab][dL]T[Dab][Dab]T; lactam 4-C), the Minimum inhibitory concentration is 2 mg/L (≈ 1.72 µM) in assay [1]; 1 mg/L (≈ 0.862 µM) in assay [2]; 1 mg/L (≈ 0.862 µM) in assay [3]; 1 mg/L (≈ 0.862 µM) in [4]; 2 mg/L (≈ 1.72 µM) in [5]; 0.25 mg/L (≈ 0.215 µM) in assay [6]. Besides, the Minimum inhibitory concentration in assay [7] worked out at 0.5 mg/L (≈ 0.431 µM); in assay [8], 0.5 mg/L (≈ 0.431 µM); in assay [9], 0.5 mg/L (≈ 0.431 µM); in assay [10] it was 0.5 mg/L (≈ 0.431 µM); in assay [11], 0.25 mg/L (≈ 0.215 µM); in assay [12] it was 1 mg/L (≈ 0.862 µM). Besides, in assay [13], the Minimum inhibitory concentration was 1 mg/L (≈ 0.862 µM).

As to `CC(C)C[C@H]1NC(=O)[C@H](CCN)NC(=O)[C@@H](NC(=O)[C@H](CN)NC(=O)[C@@H](NC(=O)[C@H](CCN)NC(=O)c2cc3ccccc3n2C)[C@@H](C)O)CCNC(=O)[C@H]([C@@H](C)O)NC(=O)[C@H](CCN)NC(=O)[C@H](CCN)NC(=O)[C@H](C)NC1=O` [Compound 65] (X22-[Dab]T[Dap][Dab][Dab][dL]A[Dab][Dab]T; lactam 4-C), the Minimum inhibitory concentration was found to be 1 mg/L (≈ 0.885 µM) in assay [1]; 1 mg/L (≈ 0.885 µM) in [2]; 0.5 mg/L (≈ 0.442 µM) in assay [3]; 1 mg/L (≈ 0.885 µM) in assay [4]; 1 mg/L (≈ 0.885 µM) in assay [5]; 0.25 mg/L (≈ 0.221 µM) in assay [6]. Further, the Minimum inhibitory concentration is reported as 0.5 mg/L (≈ 0.442 µM) in [7]; 0.25 mg/L (≈ 0.221 µM) in assay [8]; 0.5 mg/L (≈ 0.442 µM) in assay [9]; 0.25 mg/L (≈ 0.221 µM) in [10]; 0.25 mg/L (≈ 0.221 µM) in assay [11]; 0.5 mg/L (≈ 0.442 µM) in assay [12]. Moreover, in assay [13], the Minimum inhibitory concentration is listed as 0.5 mg/L (≈ 0.442 µM).

Turning to `CC(C)C[C@H]1NC(=O)[C@H](CCN)NC(=O)[C@@H](NC(=O)[C@H](CN)NC(=O)[C@@H](NC(=O)[C@H](CCN)NC(=O)c2cc3ccccc3[nH]2)[C@@H](C)O)CCNC(=O)[C@H]([C@@H](C)O)NC(=O)[C@H](CCN)NC(=O)[C@H](CCN)NC(=O)[C@H]([C@@H](C)O)NC1=O` [Compound 66] (X23-[Dab]T[Dap][Dab][Dab][dL]T[Dab][Dab]T; lactam 4-C), the Minimum inhibitory concentration in assay [1] was 2 mg/L (≈ 1.74 µM); in assay [2], 1 mg/L (≈ 0.872 µM); in [3] it was 0.5 mg/L (≈ 0.436 µM); in assay [4] it was 0.5 mg/L (≈ 0.436 µM); in [5], 1 mg/L (≈ 0.872 µM); in assay [6], 0.5 mg/L (≈ 0.436 µM). Also, the Minimum inhibitory concentration in assay [7] was 1 mg/L (≈ 0.872 µM); in [8], 0.5 mg/L (≈ 0.436 µM); in assay [9] it was 0.5 mg/L (≈ 0.436 µM); in [10] it was 2 mg/L (≈ 1.74 µM); in assay [11] it was 0.25 mg/L (≈ 0.218 µM); in assay [12], 2 mg/L (≈ 1.74 µM). The compound also had a Minimum inhibitory concentration in [13] of 1 mg/L (≈ 0.872 µM).

With `CC(C)C[C@H]1NC(=O)[C@H](CCN)NC(=O)[C@@H](NC(=O)[C@H](CN)NC(=O)[C@@H](NC(=O)[C@H](CCN)NC(=O)c2cc3ccccc3[nH]2)[C@@H](C)O)CCNC(=O)[C@H]([C@@H](C)O)NC(=O)[C@H](CCN)NC(=O)[C@H](CCN)NC(=O)[C@H](C)NC1=O` [Compound 67] (X23-[Dab]T[Dap][Dab][Dab][dL]A[Dab][Dab]T; lactam 4-C), the Minimum inhibitory concentration in [1] was determined as 2 mg/L (≈ 1.79 µM); in assay [2] it was 1 mg/L (≈ 0.896 µM); in assay [3], 0.5 mg/L (≈ 0.448 µM); in assay [4], 0.5 mg/L (≈ 0.448 µM); in assay [5] it was 1 mg/L (≈ 0.896 µM); in [6], 0.5 mg/L (≈ 0.448 µM). Besides, the Minimum inhibitory concentration was 0.5 mg/L (≈ 0.448 µM) in assay [7]; 0.5 mg/L (≈ 0.448 µM) in [8]; 0.25 mg/L (≈ 0.224 µM) in assay [9]; 0.5 mg/L (≈ 0.448 µM) in [10]; 0.25 mg/L (≈ 0.224 µM) in assay [11]; 1 mg/L (≈ 0.896 µM) in [12]. The compound further gave a Minimum inhibitory concentration in assay [13] of 1 mg/L (≈ 0.896 µM).

Take `CC(C)C[C@H]1NC(=O)[C@H](CCN)NC(=O)[C@@H](NC(=O)[C@H](CN)NC(=O)[C@@H](NC(=O)[C@H](CCN)NC(=O)c2sc3ccccc3c2Cl)[C@@H](C)O)CCNC(=O)[C@H]([C@@H](C)O)NC(=O)[C@H](CCN)NC(=O)[C@H](CCN)NC(=O)[C@H]([C@@H](C)O)NC1=O` [Compound 68] (X27-[Dab]T[Dap][Dab][Dab][dL]T[Dab][Dab]T; lactam 4-C): the Minimum inhibitory concentration is 0.25 mg/L (≈ 0.209 µM) in assay [1]; less than 0.125 mg/L in assay [2]; less than 0.125 mg/L in assay [3]; less than 0.125 mg/L in assay [4]; 0.25 mg/L (≈ 0.209 µM) in assay [5]; less than 0.125 mg/L in assay [6]. The Minimum inhibitory concentration in assay [7] is given as 0.25 mg/L (≈ 0.209 µM); in assay [8] it was 0.25 mg/L (≈ 0.209 µM); in assay [9] it was 0.25 mg/L (≈ 0.209 µM); in [10], 0.5 mg/L (≈ 0.417 µM); in assay [11], 0.25 mg/L (≈ 0.209 µM); in [12] it was 1 mg/L (≈ 0.835 µM). Besides, the Minimum inhibitory concentration in [13] was less than 0.125 mg/L.

As for `CC(C)C[C@H]1NC(=O)[C@H](CCN)NC(=O)[C@@H](NC(=O)[C@H](CN)NC(=O)[C@@H](NC(=O)[C@H](CCN)NC(=O)c2sc3ccccc3c2Cl)[C@@H](C)O)CCNC(=O)[C@H]([C@@H](C)O)NC(=O)[C@H](CCN)NC(=O)[C@H](CCN)NC(=O)[C@H](C)NC1=O` [Compound 69] (X27-[Dab]T[Dap][Dab][Dab][dL]A[Dab][Dab]T; lactam 4-C), the Minimum inhibitory concentration in assay [1] is 0.25 mg/L (≈ 0.214 µM); in assay [2], 0.25 mg/L (≈ 0.214 µM); in assay [3], 1 mg/L (≈ 0.856 µM); in assay [4], 0.25 mg/L (≈ 0.214 µM); in assay [5], 0.25 mg/L (≈ 0.214 µM); in assay [6] it was less than 0.125 mg/L. The Minimum inhibitory concentration in assay [7] was found to be 0.25 mg/L (≈ 0.214 µM); in assay [8], 0.25 mg/L (≈ 0.214 µM); in assay [9] it was 0.5 mg/L (≈ 0.428 µM); in assay [10], 0.5 mg/L (≈ 0.428 µM); in assay [11], 0.5 mg/L (≈ 0.428 µM); in [12], 2 mg/L (≈ 1.71 µM). The Minimum inhibitory concentration in assay [13] is 0.25 mg/L (≈ 0.214 µM).
